Assay results: patent publication US20240199676A1, “ANTIVIRAL COMPOUNDS AND METHODS OF MAKING AND USING THE SAME” (Gilead Sciences, Inc., priority 2022, published 2024)
pEC50: −log10 of the molar value.

Experiments:
[1] = GI S9 stability (Ex. Z), human intestinal S9; format: in vitro ADME; conditions: pooled intestinal S9 fractions; human intestinal S9, 1.0 mg/mL protein, 2 μM substrate, pH 7.4; read-out: GIS9 Human T½ (per Ex. Z)
Procedure: Example Z: GI S9 stability data:
Stock solutions of test compounds in dimethyl sulfoxide (DMSO) having a final concentration of 10 mM were prepared and used in all experiments. Sekisui XenoTech (Kansas City, KS) provided pooled intestinal S9 fractions. All other chemicals were purchased from Sigma-Aldrich (St. Louis, MO) or VWR (West Chester, PA). Internal Standard/Quench (IS/Q) used to stop reactions was 100 nM labetalol in (by volume) methanol (10%) and acetonitrile (90%).
Stability in Intestinal S9 Fractions: Duplicate aliquots of test compound or positive control substrate were added to S9 stock diluted with phosphate buffered saline (137 mM NaCl, 2.7 mM KCl, 10 mM phosphate buffer), pH 7.4, to obtain a protein concentration of 1.0 mg/mL. The metabolic reactions were initiated by the addition of the substrates to the S9 reaction mixture to a final concentration of 2 μM. At 0, 10, 20, 30, 60 and 120 min, 25 μL aliquots of the reaction mixture were transferred to plates containing 225 μl of IS/Q solution. After quenching, the plates were centrifuged at 3000×g for 30 minutes. 150 μL aliquots of each supernatant were dried down then reconstituted with 300 μL water. Aliquots (10 μL) of the prepared samples were analyzed on a Thermo Q-Exactive mass spectrometer as described below.
Liquid Chromatography—Mass Spectrometry: Quantification of test compounds and control substrate was performed by analyte/internal standard peak area ratio (PAR) values measured on a Thermo Q-Exactive mass spectrometer coupled to a Dionex UltiMate 3000 HPLC with a Leap Technologies HTC PAL autosampler. The column used for analysis was a Waters Acquity BEH C18 (1.7 μm particle size, 2.1×50 mm). Mobile phase A consisted of 0.1% (v/v) formic acid in water. Mobile phase B consisted of 0.1% (v/v) formic acid in acetonitrile. Elution of analytes was achieved by a series of linear gradients varying the proportions of A and B. The mass spectrometer was calibrated on a weekly basis and mass tolerance of 5 ppm was used.
Metabolic stabilities in S9 fractions were determined by measuring the rates of disappearance of test compound and positive control substrate.
Data (% of substrate remaining) were plotted on a semi-log scale and fitted using an exponential decline model:
Where Ct—% of substrate remaining at time=t; C0—% of substrate remaining at time=0; t—time; T½—half-life The Half-life (T½) is determined by the following equation: […]
Assuming a first-order reaction, the slope (k) is extrapolated from the aforementioned plotted data.

[2] = tested on: Human Rhinovirus 16 (HRV16) in H1-HeLa cells; assay: H1-HeLa HRV-CTG 384-well Assay (Ex. Y), HRV16; format: cell-based; conditions: Rhinovirus A, 96 h; H1-HeLa cells, HRV16 MOI 0.25, 4 days, Celltiter-Glo; read-out: EC50 H1-HeLa_HRV16_HRV-CTG 384-well Assay (per Ex. Y)
Excerpt: (§1) Example Y: H1-HeLa HRV-CTG 384-well Assay
(§2) H1-Hela cell line (ATCC, Manassas, VA, Cat #CRL-1958) was maintained in Dulbecco's […] (DMEM) (Corning, New York, NY, Cat #15-018CM) supplemented with 10% fetal bovine serum (FBS) (Hyclone, Logan, UT, Cat #SH30071-03), and 1× Penicillin-Streptomycin-L-Glutamine (Corning, New York, NY, Cat #30-009-CI). Cells were passaged 2 times per week to maintain sub-confluent densities and were used for experiments at passage 5-30. The Human Rhinovirus 1B (HRV1B) (ATCC, Manassas, VA, Cat #VR-1645) , Human Rhinovirus 14 (HRV14) (ATCC, Manassas, VA, Cat #VR-284), and Human Rhinovirus 16 (HRV16) (ATCC, Manassas, VA, Cat #BR-283) was obtained through ATCC. Viral infection was monitored by determining viability of H1-HeLa cells as described below.
(§3) Test molecules are prepared in 100% DMSO in 384-well polypropylene plates (Greiner, Monroe, NC, Cat #784201) with 8 compounds per plate in grouped replicates of 4 at 10 serially diluted concentrations (1:3). The serially diluted compounds were transferred to low dead volume Echo plates (Labcyte, Sunnyvale, CA, Cat #LP-0200).
(§4) The test compounds were spotted to 384-well assay plates (Greiner, Monroe, NC, Cat#781091) at 200 nL per well using an Echo acoustic dispenser (Labcyte, Sunnyvale, CA). H1-HeLa cells were harvested and suspended in DMEM (supplemented with 2% FBS and 1× Penicillin-Streptomycin-L-Glutamine) and seeded to the pre-spotted assay plates at 5,000 cells per well in 30 μL. HRV1B, HRV14, and HRV16 was diluted in DMEM (supplemented with 2% FBS and 1× Penicillin-Streptomycin-L-Glutamine) at 97.1 million Infectious Units (IU) per mL, 151 million IU per mL and 221 million IU per mL respectively. 10 μL of virus per well was added to the assay plates containing cells and compounds, for an MOI of 0.5, 1.0, and 0.25 respectively. The assay plates were incubated for 4 days at 37° C. and 5% CO2. At the end of incubation, Celltiter-Glo (Promega, Madison, WI, Cat #(Ga7573) was prepared. The assay plates and Celltiter-Glo reagent were equilibrated to room temperature for at least 15 minutes. 40 μL per well of Celltiter-Glo reagent was added and the plates were incubated at room temperature for 15 minutes before reading the luminescence signal on an EnVision multimode plate reader (Perkin Elmer, Waltham, MA). Rupintrivir was used as positive control and DMSO was used as negative control. Values were normalized to the positive and negative controls (as 0% and 100% replication, respectively) and data was fitted using non-linear regression analysis by Gilead's dose response tool. The EC50 value for each compound was defined as the concentration reducing viral replication by 50%.

[3] = tested on: Human Rhinovirus 1B (HRV1B) in H1-HeLa cells; assay: H1-HeLa HRV-CTG 384-well Assay (Ex. Y), HRV1B; format: cell-based; conditions: Rhinovirus A, 96 h; H1-HeLa cells, HRV1B MOI 0.5, 4 days, Celltiter-Glo; read-out: EC50 H1-HeLa_HRV1B_HRV-CTG 384-well Assay (per Ex. Y)
Excerpt: as §1, §2, §3, §4

Row | Structure (SMILES) | half-life at 2 μM [1] | pEC50 [2] | pEC50 [3]
1 | N#C[C@]1(COC(=O)[C@H]2CCC(=O)O2)O[C@@H](c2ccc3c(N)ncnn23)[C@H](O)[C@@H]1O [Compound 25, ((2R,3S,4R,5S)-5-(4-aminopyrrolo[2,1-f][1,2,4]triazin-7-yl)-2-cyano-3,4-dihydroxytetrahydrofuran-2-yl)methyl (R)-5-oxotetrahydrofuran-2-carboxylate] | 3 min | 5.08 | 5.50
2 | CC(C)[C@H](N)C(=O)OC[C@@]1(C#N)O[C@@H](c2ccc3c(N)ncnn23)[C@H](O)[C@@H]1O [Compound 12, ((2R,3S,4R,5S)-5-(4-aminopyrrolo[2,1-f][1,2,4]triazin-7-yl)-2-cyano-3,4-dihydroxytetrahydrofuran-2-yl)methyl L-valinate] | 2 min | 5.05 | 5.19
3 | CC(C)(C)CC(=O)OC[C@@]1(C#N)O[C@@H](c2ccc3c(N)ncnn23)[C@H](O)[C@@H]1O [Compound 13, ((2R,3S,4R,5S)-5-(4-aminopyrrolo[2,1-f][1,2,4]triazin-7-yl)-2-cyano-3,4-dihydroxytetrahydrofuran-2-yl)methyl 3,3-dimethylbutanoate] | 789 min | 4.30 | 4.30
4 | CCCC(=O)OC[C@@]1(C#N)O[C@@H](c2ccc3c(N)ncnn23)[C@H](O)[C@@H]1O [Compound 6, ((2R,3S,4R,5S)-5-(4-aminopyrrolo[2,1-f][1,2,4]triazin-7-yl)-2-cyano-3,4-dihydroxytetrahydrofuran-2-yl)methyl butyrate] | 8 min | 5.08 | 5.39
5 | CC(C)(C)C(=O)OC[C@@]1(C#N)O[C@@H](c2ccc3c(N)ncnn23)[C@H](O)[C@@H]1O [Compound 10, ((2R,3S,4R,5S)-5-(4-aminopyrrolo[2,1-f][1,2,4]triazin-7-yl)-2-cyano-3,4-dihydroxytetrahydrofuran-2-yl)methyl pivalate] | 124 min | 4.85 | 5.01
6 | N#C[C@]1(COC(=O)c2ccccc2)O[C@@H](c2ccc3c(N)ncnn23)[C@H](O)[C@@H]1O [Compound 2, ((2R,3S,4R,5S)-5-(4-aminopyrrolo[2,1-f][1,2,4]triazin-7-yl)-2-cyano-3,4-dihydroxytetrahydrofuran-2-yl)methyl benzoate] | 27 min | 4.55 | 5.02
7 | CC(C)(C)CCC(=O)OC[C@@]1(C#N)O[C@@H](c2ccc3c(N)ncnn23)[C@H](O)[C@@H]1O [Compound 36, ((2R,3S,4R,5S)-5-(4-aminopyrrolo[2,1-f][1,2,4]triazin-7-yl)-2-cyano-3,4-dihydroxytetrahydrofuran-2-yl)methyl 4,4-dimethylpentanoate] | 11 min | 5.10 | 5.51
8 | N#C[C@]1(COC(=O)C2CC2)O[C@@H](c2ccc3c(N)ncnn23)[C@H](O)[C@@H]1O [Compound 7, ((2R,3S,4R,5S)-5-(4-aminopyrrolo[2,1-f][1,2,4]triazin-7-yl)-2-cyano-3,4-dihydroxytetrahydrofuran-2-yl)methyl cyclopropanecarboxylate] | 292 min | 4.51 | 4.94
9 | CC(C)C(=O)OC[C@@]1(C#N)O[C@@H](c2ccc3c(N)ncnn23)[C@H](O)[C@@H]1O [Compound 1, ((2R,3S,4R,5S)-5-(4-aminopyrrolo[2,1-f][1,2,4]triazin-7-yl)-2-cyano-3,4-dihydroxytetrahydrofuran-2-yl)methyl isobutyrate] | 38 min | 5.03 | 5.52
10 | CCC(CC)C(=O)Nc1ncnn2c([C@@H]3O[C@](C#N)(COC(=O)C(CC)CC)[C@@H](O)[C@H]3O)ccc12 [Compound 11, ((2R,3S,4R,5S)-2-cyano-5-(4-(2-ethylbutanamido)pyrrolo[2,1-f][1,2,4]triazin-7-yl)-3,4-dihydroxytetrahydrofuran-2-yl)methyl 2-ethylbutanoate] | 56 min | 4.30 | 4.30
11 | CC(C)C(=O)OC[C@@]1(C#N)O[C@@H](c2ccc3c(N)ncnn23)[C@H](OC(=O)C(C)C)[C@@H]1OC(=O)C(C)C [Compound 20, (2R,3S,4S,5S)-5-(4-aminopyrrolo[2,1-f][1,2,4]triazin-7-yl)-2-cyano-2-((isobutyryloxy)methyl)tetrahydrofuran-3,4-diyl bis(2-methylpropanoate)] | 3 min | 4.30 | 5.02
12 | N#C[C@]1(COC(=O)C2CC3(CCC3)C2)O[C@@H](c2ccc3c(N)ncnn23)[C@H](O)[C@@H]1O [Compound 32, ((2R,3S,4R,5S)-5-(4-aminopyrrolo[2,1-f][1,2,4]triazin-7-yl)-2-cyano-3,4-dihydroxytetrahydrofuran-2-yl)methyl spiro[3.3]heptane-2-carboxylate] | 12 min | 5.34 | 5.50
13 | CC(=O)OC[C@@]1(C#N)O[C@@H](c2ccc3c(N)ncnn23)[C@H](OC(C)=O)[C@@H]1OC(C)=O [Compound 28, (2R,3S,4S,5S)-2-(acetoxymethyl)-5-(4-aminopyrrolo[2,1-f][1,2,4]triazin-7-yl)-2-cyanotetrahydrofuran-3,4-diyl diacetate] | 5 min | 4.62 | 5.02
14 | N#C[C@]1(COC(=O)C2CCCC2)O[C@@H](c2ccc3c(N)ncnn23)[C@H](O)[C@@H]1O [Compound 18, ((2R,3S,4R,5S)-5-(4-aminopyrrolo[2,1-f][1,2,4]triazin-7-yl)-2-cyano-3,4-dihydroxytetrahydrofuran-2-yl)methyl cyclopentanecarboxylate] | 8 min | 5.10 | 5.52
15 | CC(=O)OC[C@@]1(C#N)O[C@@H](c2ccc3c(N)ncnn23)[C@H](O)[C@@H]1O [Compound 4, ((2R,3S,4R,5S)-5-(4-aminopyrrolo[2,1-f][1,2,4]triazin-7-yl)-2-cyano-3,4-dihydroxytetrahydrofuran-2-yl)methyl acetate] | 23 min | 5.00 | 5.20
